We go through 56 compounds from PubChem BioAssay AID977628 (Broad Institute, 2014).

Inconclusive results are not listed. Active and inactive are the calls of the source.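 Rule for the calls: active = compound lowering the normal-ribosome reporter at least twice as much as the humanized-ribosome reporter, growth loss under a set limit; inconclusive = no clear call, values can overlap the other calls; inactive = the rest.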 Bounds are passed on as bounds.

The AC50 is the concentration giving half of the maximal activity seen.

What all share (test): growth of wild-type and h24-humanized E. coli strains – h24 mutant RFP vs wild-type GFP, cherry-pick, dose response (AID 977628)
For experiment [1], the system named is E. coli WT GFP strain growth, fluorescence, 24 h.
Experiment [2] has as its system E. coli h24 humanized mutant RFP strain growth, fluorescence, 24 h.
Experiment [3] concerns E. coli mixed WT/h24 culture total growth, OD600, 24 h.

Take `COc1ccc2cc(CO)c3cc(OC)c(OC)cc3c2c1`: the AC50 is > 100 µM (inactive) in experiment [1], greater than 100 µM in experiment [2] and greater than 100 µM in experiment [3].

Turning to `CNC(=O)c1ccsc1NC(=O)c1ccc2c(c1)CCCC2`, the AC50 was > 100 µM (inactive) in experiment [1], 6.81 µM in experiment [2] and greater than 100 µM in experiment [3].

As to `COc1cc(NC(=O)COC(=O)CC(C)(C)C)c(C)cc1[N+](=O)[O-]`, the AC50 in experiment [1] is > 100 µM (inactive); in experiment [2] it was greater than 100 µM; in experiment [3] it was greater than 100 µM.

With `Cc1nc(C)c(-c2ccn(S(=O)(=O)c3ccc(Cl)cc3)n2)o1`, the AC50 in experiment [1] is > 100 µM (inactive); in experiment [2] it was greater than 100 µM; in experiment [3] it was 45.5 µM.

For the compound `CC(C)CNC(=O)c1cccc(NC(=O)C(C)Oc2ccccc2)c1` (stereo not given), the AC50 in experiment [2] and in experiment [3] was greater than 100 µM each time.

For the compound `Cc1cc(C)n2nc(C(=O)Nc3cccc(S(=O)(=O)N(C)c4ccccc4)c3)nc2n1`, the AC50 is > 100 µM (inactive) in experiment [1], greater than 100 µM in experiment [2] and greater than 100 µM in experiment [3].

Turning to `COc1ccc(NC(=O)c2cccnc2SC)cc1S(=O)(=O)N1CCCCC1`, the AC50 in experiment [1] was > 100 µM (inactive); in experiment [2] it was greater than 100 µM; in experiment [3], greater than 100 µM.

On to `CCc1ccn2cc(-c3ccc4c(c3)OCO4)nc2c1`, for which the values for the AC50 in experiment [1], in experiment [2] and in experiment [3] were > 100 µM (inactive), greater than 100 µM and greater than 100 µM, respectively.

Regarding `CCc1cccc(NC(=O)CCC(=O)N2CCSc3ccccc32)c1`, the results for the AC50 in experiment [1], in experiment [2] and in experiment [3] were > 100 µM (inactive), greater than 100 µM and 41.7 µM, respectively.

With `Cc1cccc(S(=O)(=O)Nc2ccc(-c3cn4ccccc4n3)cc2)c1`, the AC50 in experiment [1] was > 100 µM (inactive); in experiment [2] it was greater than 100 µM; in experiment [3], 29.7 µM.

`CCN(C(=O)CSc1cc(C)c2ccc(OC)cc2n1)C1CCS(=O)(=O)C1` (stereo not given): the half-maximal activity concentration (AC50) in experiment [2] and in experiment [3] was greater than 100 µM each time.

Turning to `Cc1ccc(C(=O)Nc2cccc3[nH]c(C(F)(F)F)nc23)cc1`, the AC50 in experiment [1] was > 100 µM (inactive); in experiment [2] it was greater than 100 µM; in experiment [3], greater than 100 µM.

As to `CCn1cc(Br)c(C(=O)Nc2ccc(C(=O)OC(C)C)cc2)n1`, the AC50 in experiment [1] was > 100 µM (inactive); in experiment [2] it was 2.96 µM; in experiment [3], 19.9 µM.

As to `C=CCNc1ccc2c(c1)OC[C@H](CC(C)C)NS2(=O)=O`, the results for the AC50 in experiment [1], in experiment [2] and in experiment [3] were > 100 µM (inactive), greater than 100 µM and greater than 100 µM, respectively.

For the compound `Nc1ccccc1Sc1ccc(C(F)(F)F)cc1[N+](=O)[O-]`, the figures for the AC50 in experiment [1], in experiment [2] and in experiment [3] were > 100 µM (inactive), greater than 100 µM and 52.3 µM, respectively.

For the compound `CCCCCc1nnc(NC(=O)C2COc3ccccc3O2)s1` (stereo not given), the AC50 in experiment [2] and in experiment [3] was greater than 100 µM throughout.

In the case of `O=C(O)CCSc1nc2ccccc2n1-c1ccccc1`, the AC50 was > 100 µM (inactive) in experiment [1], 29.2 µM in experiment [2] and 36.4 µM in experiment [3].

Take `Cc1ccc(CNS(=O)(=O)c2ccc3c(c2)NC(=O)CS3)cc1`: the AC50 in experiment [1] is > 100 µM (inactive); in experiment [2], 8.08 µM.

`COc1ccccc1CNC(=O)CN1C(=O)NC(c2ccccc2)(c2ccccc2)C1=O`: the AC50 was > 100 µM (inactive) in experiment [1], greater than 100 µM in experiment [2] and greater than 100 µM in experiment [3].

Turning to `COc1ccccc1-c1nnc(C2CCN(S(=O)(=O)c3cccc([N+](=O)[O-])c3)CC2)o1`, the AC50 in experiment [1] was > 100 µM (inactive); in experiment [2], greater than 100 µM; in experiment [3] it was greater than 100 µM.

With `C[C@]12C(=O)N(c3ccc(F)cc3)C(=O)N1[C@@H]1c3ccccc3OC[C@@H]1[C@H]2c1ccccc1`, the concentration at half-maximal activity (AC50) in experiment [2] was 5.36 µM; in experiment [3] it was greater than 100 µM.

Regarding `O=C(Nc1ccc(S(=O)(=O)N2CCOCC2)cc1)c1ccc([N+](=O)[O-])o1`, the AC50 in experiment [1] is > 100 µM (inactive); in experiment [2], 50.9 µM.

For `NS(=O)(=O)c1cccc(NC(=O)c2cccc(-c3ccc(O)cc3)c2)c1`, the AC50 in experiment [1] was > 100 µM (inactive); in experiment [2] it was greater than 100 µM; in experiment [3], 50.8 µM.

For `c1ccc(-c2nc(-c3cccnc3)cs2)cc1`, the figures for the AC50 in experiment [1], in experiment [2] and in experiment [3] were > 100 µM (inactive), greater than 100 µM and greater than 100 µM, respectively.

For the compound `CC(=O)NS(=O)(=O)c1ccc(NC(=O)COc2ccc(C(=O)c3ccccc3)cc2)cc1`, the values for the AC50 in experiment [1] and in experiment [2] were > 100 µM (inactive) and greater than 100 µM, respectively.

For the compound `CSc1nnnn1-c1ccc(Cl)cc1`, the AC50 in experiment [2] and in experiment [3] was greater than 100 µM throughout.

As to `CCCCNC(=O)C[C@@H]1C[C@@]2(C(=O)OC)CCCCC=C2N(Cc2ccccc2)C1=O`, the results for the AC50 in experiment [1], in experiment [2] and in experiment [3] were > 100 µM (inactive), greater than 100 µM and greater than 100 µM, respectively.

Turning to `Cc1ccc(-c2nc3ccc(NS(=O)(=O)c4ccccc4)cc3[nH]2)o1`, the AC50 in experiment [1] is > 100 µM (inactive); in experiment [2] it was 5.12 µM.

With `COc1cc2cc(C(=O)Nc3ccc4c(c3)OCCO4)[nH]c2cc1OC`, the AC50 in experiment [2] and in experiment [3] was greater than 100 µM throughout.

For the compound `COC(=O)c1ccsc1NC(=O)c1cccc(OC)c1`, the AC50 in experiment [2] and in experiment [3] was greater than 100 µM each time.

Turning to `COc1ccc(CNC(=O)CSCc2c(F)cccc2Cl)cc1`, the values for the AC50 in experiment [1] and in experiment [2] were > 100 µM (inactive) and greater than 100 µM, respectively.

With `COc1ccccc1C(=O)Nc1cccc2cccnc12`, the AC50 is > 100 µM (inactive) in experiment [1], 10.2 µM in experiment [2] and greater than 100 µM in experiment [3].

In the case of `CN(c1ccccc1)S(=O)(=O)c1cccc(NC(=O)CCN2C(=O)C3CCCCC3C2=O)c1` (stereo not given), the AC50 in experiment [1] was > 100 µM (inactive); in experiment [2] it was 9.42 µM.

Turning to `CC(=O)Nc1nc(C)c(-c2csc(Nc3ccccn3)n2)s1`, the AC50 is > 100 µM (inactive) in experiment [1] and greater than 100 µM in experiment [2].

As for `O=C1c2cccc(OCC(=O)N3CCCc4ccccc43)c2CCN1Cc1cccnc1`, the AC50 is > 100 µM (inactive) in experiment [1], 9.06 µM in experiment [2] and 45.8 µM in experiment [3].

Regarding `Cc1ccc(NC(=O)c2ccc(NCCCN3CCC(C)CC3)c([N+](=O)[O-])c2)cc1F`, the results for the AC50 in experiment [1] and in experiment [2] were > 100 µM (inactive) and 11.1 µM, respectively.

Consider `COCc1ccc(C(=O)N2CCCC(C(=O)c3ccc(Cl)cc3C)C2)o1` (stereo not given), for which the concentration at half-maximal activity (AC50) in experiment [2] and in experiment [3] was greater than 100 µM each time.

For the compound `CCOc1ccc(NC(=O)CN(C)CC(=O)Nc2ccc(Br)cc2F)cc1OCC`, the AC50 is > 100 µM (inactive) in experiment [1], greater than 100 µM in experiment [2] and greater than 100 µM in experiment [3].

Regarding `COc1ccc(NC(=O)c2sccc2-n2cccc2)cc1`, the AC50 in experiment [1] is > 100 µM (inactive); in experiment [2] it was greater than 100 µM.

In the case of `CCc1cc(C(=O)c2ccc(OC)cc2)c(NC(=O)CCC(=O)O)s1`, the values for the AC50 in experiment [1], in experiment [2] and in experiment [3] were > 100 µM (inactive), 49 µM and 50.9 µM, respectively.

Regarding `Cc1ccccc1-n1ncc2c(SCC(=O)N3c4ccccc4CC3C)ncnc21` (stereo not given), the AC50 in experiment [1] is > 100 µM (inactive); in experiment [2], greater than 100 µM.

Take `O=C(O)c1cc(S(=O)(=O)N2CCN(C(c3ccccc3)c3ccccc3)CC2)ccc1Cl`: the AC50 in experiment [1] is > 100 µM (inactive); in experiment [2], greater than 100 µM; in experiment [3], greater than 100 µM.

`O=C(CN1C(=O)c2ccccc2C1=O)Nc1cccc(S(=O)(=O)Nc2ccccc2Cl)c1`: the AC50 in experiment [1] was > 100 µM (inactive); in experiment [2], greater than 100 µM.

On to `Nc1[nH]c(C(=O)c2ccccc2)c(-c2ccc3c(c2)OCO3)c1C(=O)NCCc1c[nH]c2ccccc12`, for which the figures for the AC50 in experiment [1], in experiment [2] and in experiment [3] were > 100 µM (inactive), greater than 100 µM and greater than 100 µM, respectively.

On to `O=C(Cc1ccc(NC(=O)C2CCCN(C(=O)CCc3ccccc3)C2)cc1)Nc1cccc(C(=O)N2CCCC2)c1` (stereo not given), for which the AC50 in experiment [1] was > 100 µM (inactive); in experiment [2] it was greater than 100 µM.

For `Cc1ccccc1-c1nc(CS(=O)(=O)CC(=O)N2CCCCC2)c(C)o1`, the concentration at half-maximal activity (AC50) in experiment [2] and in experiment [3] was greater than 100 µM throughout.

Turning to `CCc1cc2cc(OC)ccc2nc1SCC(=O)Nc1cc(OC)c(OC)cc1C(=O)O`, the AC50 in experiment [2] and in experiment [3] was greater than 100 µM each time.

With `CC(=O)Nc1ccc2nc3ccccc3nc2c1`, the AC50 was > 100 µM (inactive) in experiment [1] and greater than 100 µM in experiment [2].

Turning to `Cc1oc(-c2ccc(-c3ccccc3)cc2)nc1CN(C)C1CCOC1` (stereo not given), the AC50 is > 100 µM (inactive) in experiment [1], greater than 100 µM in experiment [2] and 49.9 µM in experiment [3].

`O=C(COC(=O)C1CC2C=CC1C2)Nc1ccc([N+](=O)[O-])cc1` (stereo not given): the AC50 in experiment [2] and in experiment [3] was greater than 100 µM throughout.

`Cc1nnc2sc(SCC(=O)Nc3ccc(Br)cc3)nn2c1=O`: the AC50 in experiment [1] is > 100 µM (inactive); in experiment [2], greater than 100 µM; in experiment [3], greater than 100 µM.

Take `O=C(Nc1cccc(Oc2ccc3c(c2)C(=O)NC3=O)c1)c1cccs1`: the AC50 in experiment [1] was > 100 µM (inactive); in experiment [2], greater than 100 µM.

Turning to `CCCN(Cc1ccco1)S(=O)(=O)c1ccc(OC)c(OC)c1`, the AC50 in experiment [2] and in experiment [3] was greater than 100 µM each time.

Regarding `O=S1(=O)c2ccc(Br)cc2OCCC2CCCCN21` (stereo not given), the values for the AC50 in experiment [1], in experiment [2] and in experiment [3] were > 100 µM (inactive), greater than 100 µM and greater than 100 µM, respectively.

`Cc1cc(C)cc(NC(=O)c2cccc(NC(=O)c3ccco3)c2)c1`: the AC50 in experiment [1] was > 100 µM (inactive); in experiment [2], greater than 100 µM.

On to `COC(C(=O)Nc1ccnn1C1CCN(Cc2ccc(Cl)s2)CC1)c1ccccc1` (stereo not given), for which the AC50 in experiment [2] and in experiment [3] was greater than 100 µM throughout.
